{
  "source": "patent US8952024B2",
  "about": "“Herbicidal pyrimidone derivatives” (E I du Pont de Nemours and Company, priority 2009, dated 2015)",
  "type_in_all_cases": "in vivo",
  "key": {"[1]": {"tested_on": "pigweed (Amaranthus retroflexus)", "assay": "Test A pre-/postemergence plant response", "details": "1000 g ai/ha, approx. ten days", "procedure,_shortened": "(§1)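 Pre: directed soil spray on seeded loam/sand blend. Post: same formulation (non-phytotoxic solvent + surfactant) on 2–10 cm plants, 1–2 leaf stage. Greenhouse ~10 d; visual injury score 0–100 vs untreated.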"}, "[2]": {"tested_on": "barnyardgrass (Echinochloa crus-galli)", "assay": "Test A pre-/postemergence plant response", "details": "1000 g ai/ha, approx. ten days", "procedure,_shortened": "as §1"}, "[3]": {"tested_on": "morningglory (Ipomoea coccinea)", "assay": "Test B pre-/postemergence plant response", "procedure,_shortened": "(§2)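 Greenhouse herbicide screen. Pre- and postemergence (1- to 4-leaf) spray of compound in solvent/surfactant mixture; loam–sand soil for pre, peat/vermiculite medium for post. Visual control rating 0–100 at 13 to 15 days after treatment.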"}, "[4]": {"tested_on": "wheat (Triticum aestivum)", "assay": "Test B pre-/postemergence plant response", "procedure,_shortened": "as §2"}, "[5]": {"tested_on": "goosegrass (Eleusine indica)", "assay": "Test B pre-/postemergence plant response", "procedure,_shortened": "as §2"}, "[6]": {"tested_on": "yellow nutsedge (Cyperus esculentus)", "assay": "Test B pre-/postemergence plant response", "procedure,_shortened": "as §2"}, "[7]": {"tested_on": "large crabgrass (Digitaria sanguinalis)", "assay": "Test B pre-/postemergence plant response", "procedure,_shortened": "as §2"}, "[8]": {"tested_on": "Italian ryegrass (Lolium multiflorum)", "assay": "Test B pre-/postemergence plant response", "procedure,_shortened": "as §2"}, "[9]": {"tested_on": "woolly cupgrass (Eriochloa villosa)", "assay": "Test B pre-/postemergence plant response", "procedure,_shortened": "as §2"}, "[10]": {"tested_on": "velvetleaf (Abutilon theophrasti)", "assay": "Test B pre-/postemergence plant response", "procedure,_shortened": "as §2"}, "[11]": {"tested_on": "downy bromegrass (Bromus tectorum)", "assay": "Test B pre-/postemergence plant response", "procedure,_shortened": "as §2"}, "[12]": {"tested_on": "blackgrass (Alopecurus myosuroides)", "assay": "Test B pre-/postemergence plant response", "procedure,_shortened": "as §2"}, "[13]": {"tested_on": "Surinam grass (Brachiaria decumbens)", "assay": "Test B pre-/postemergence plant response", "procedure,_shortened": "as §2"}, "[14]": {"details": "Postemergence, 0 to 100 scale, 0 = no effect, 100 = complete control"}, "[15]": {"details": "Preemergence, visual injury, 0 to 100 scale (0 no effect, 100 complete control)"}, "[16]": {"details": "Postemergence, 31 g ai/ha, 0 to 100 scale (0 no effect, 100 complete control)"}, "[17]": {"details": "Postemergence, 125 g ai/ha, scale 0 to 100 (0 no effect, 100 complete control)"}, "[18]": {"details": "Postemergence, 250 g ai/ha, scale 0 to 100 (0 no effect, 100 complete control), 13 to 15 days"}, "[19]": {"details": "Postemergence, 62 g ai/ha, scale 0 to 100 (0 no effect, 100 complete control)"}, "[20]": {"details": "Preemergence, 31 g ai/ha, scale 0 to 100 (0 no effect, 100 complete control)"}, "[21]": {"details": "Preemergence, 62 g ai/ha, scale 0 to 100, 0 no effect, 100 complete control"}, "[22]": {"details": "Preemergence, 125 g ai/ha, scale 0 to 100, 0 no effect, 100 complete control"}, "[23]": {"details": "Preemergence, 250 g ai/ha, 0 to 100 scale"}},
  "data": [
    {"smiles": "CCCc1ncc(C(=O)C2=C(O)CCCC2=O)c(=O)n1-c1ccccc1", "note": "[Compound 217]", "values": [
      {"measurement": "Plant response rating, Pigweed", "setting": "[1]; [14]", "result": 100},
      {"measurement": "Plant response rating, Pigweed", "setting": "[1]; [15]", "result": 100},
      {"measurement": "Plant response rating, Barnyardgrass", "setting": "[2]; [14]", "result": 90},
      {"measurement": "Plant response rating, Barnyardgrass", "setting": "[2]; [15]", "result": 80},
      {"measurement": "Plant response rating, Morningglory", "setting": "[3]; [16]", "result": 70},
      {"measurement": "Plant response rating, Morningglory", "setting": "[3]; [17]", "result": 80},
      {"measurement": "Plant response rating, Morningglory", "setting": "[3]; [18]", "result": 80},
      {"measurement": "Plant response rating, Morningglory", "setting": "[3]; [19]", "result": 75},
      {"measurement": "Plant response rating, Morningglory", "setting": "[3]; [20]", "result": 0},
      {"measurement": "Plant response rating, Morningglory", "setting": "[3]; [21]", "result": 0},
      {"measurement": "Plant response rating, Morningglory", "setting": "[3]; [22]", "result": 0},
      {"measurement": "Morningglory plant response rating", "setting": "[3]; [23]", "result": 0},
      {"measurement": "Plant response rating, Wheat", "setting": "[4]; [16]", "result": 30},
      {"measurement": "Plant response rating, Wheat", "setting": "[4]; [18]", "result": 50},
      {"measurement": "Plant response rating, Wheat", "setting": "[4]; [19]", "result": 45},
      {"measurement": "Plant response rating, Wheat", "setting": "[4]; [20]", "result": 0},
      {"measurement": "Plant response rating, Wheat", "setting": "[4]; [21]", "result": 0},
      {"measurement": "Plant response rating, Wheat", "setting": "[4]; [22]", "result": 0},
      {"measurement": "Wheat plant response rating", "setting": "[4]; [23]", "result": 0},
      {"measurement": "Plant response rating, Goosegrass", "setting": "[5]; [16]", "result": 80},
      {"measurement": "Plant response rating, Goosegrass", "setting": "[5]; [17]", "result": 85},
      {"measurement": "Plant response rating, Goosegrass", "setting": "[5]; [18]", "result": 95},
      {"measurement": "Plant response rating, Goosegrass", "setting": "[5]; [19]", "result": 80},
      {"measurement": "Plant response rating, Goosegrass", "setting": "[5]; [20]", "result": 95},
      {"measurement": "Plant response rating, Goosegrass", "setting": "[5]; [21]", "result": 98},
      {"measurement": "Plant response rating, Goosegrass", "setting": "[5]; [22]", "result": 100},
      {"measurement": "Goosegrass plant response rating", "setting": "[5]; [23]", "result": 100},
      {"measurement": "Plant response rating, Nutsedge, Yellow", "setting": "[6]; [16]", "result": 10},
      {"measurement": "Plant response rating, Nutsedge, Yellow", "setting": "[6]; [17]", "result": 70},
      {"measurement": "Plant response rating, Nutsedge, Yellow", "setting": "[6]; [18]", "result": 70},
      {"measurement": "Plant response rating, Nutsedge, Yellow", "setting": "[6]; [19]", "result": 60},
      {"measurement": "Plant response rating, Nutsedge, Yellow", "setting": "[6]; [20]", "result": 60},
      {"measurement": "Plant response rating, Nutsedge, Yellow", "setting": "[6]; [21]", "result": 65},
      {"measurement": "Plant response rating, Nutsedge, Yellow", "setting": "[6]; [22]", "result": 70},
      {"measurement": "Nutsedge, Yellow plant response rating", "setting": "[6]; [23]", "result": 90},
      {"measurement": "Plant response rating, Crabgrass, Large", "setting": "[7]; [16]", "result": 80},
      {"measurement": "Plant response rating, Crabgrass, Large", "setting": "[7]; [17]", "result": 90},
      {"measurement": "Plant response rating, Crabgrass, Large", "setting": "[7]; [18]", "result": 98},
      {"measurement": "Plant response rating, Crabgrass, Large", "setting": "[7]; [19]", "result": 85},
      {"measurement": "Plant response rating, Crabgrass, Large", "setting": "[7]; [20]", "result": 95},
      {"measurement": "Plant response rating, Crabgrass, Large", "setting": "[7]; [21]", "result": 100},
      {"measurement": "Plant response rating, Crabgrass, Large", "setting": "[7]; [22]", "result": 100},
      {"measurement": "Crabgrass, Large plant response rating", "setting": "[7]; [23]", "result": 100},
      {"measurement": "Plant response rating, Ryegrass, Italian", "setting": "[8]; [16]", "result": 0},
      {"measurement": "Plant response rating, Ryegrass, Italian", "setting": "[8]; [18]", "result": 40},
      {"measurement": "Plant response rating, Ryegrass, Italian", "setting": "[8]; [19]", "result": 30},
      {"measurement": "Plant response rating, Ryegrass, Italian", "setting": "[8]; [20]", "result": 0},
      {"measurement": "Plant response rating, Ryegrass, Italian", "setting": "[8]; [21]", "result": 0},
      {"measurement": "Plant response rating, Ryegrass, Italian", "setting": "[8]; [22]", "result": 5},
      {"measurement": "Ryegrass, Italian plant response rating", "setting": "[8]; [23]", "result": 10},
      {"measurement": "Plant response rating, Cupgrass, Woolly", "setting": "[9]; [16]", "result": 25},
      {"measurement": "Plant response rating, Cupgrass, Woolly", "setting": "[9]; [17]", "result": 45},
      {"measurement": "Plant response rating, Cupgrass, Woolly", "setting": "[9]; [18]", "result": 55},
      {"measurement": "Plant response rating, Cupgrass, Woolly", "setting": "[9]; [19]", "result": 45},
      {"measurement": "Plant response rating, Cupgrass, Woolly", "setting": "[9]; [20]", "result": 0},
      {"measurement": "Plant response rating, Cupgrass, Woolly", "setting": "[9]; [21]", "result": 5},
      {"measurement": "Plant response rating, Cupgrass, Woolly", "setting": "[9]; [22]", "result": 65},
      {"measurement": "Cupgrass, Woolly plant response rating", "setting": "[9]; [23]", "result": 80},
      {"measurement": "Plant response rating, Velvetleaf", "setting": "[10]; [16]", "result": 98},
      {"measurement": "Plant response rating, Velvetleaf", "setting": "[10]; [18]", "result": 100},
      {"measurement": "Plant response rating, Velvetleaf", "setting": "[10]; [19]", "result": 98},
      {"measurement": "Plant response rating, Velvetleaf", "setting": "[10]; [20]", "result": 95},
      {"measurement": "Plant response rating, Velvetleaf", "setting": "[10]; [21]", "result": 100},
      {"measurement": "Plant response rating, Velvetleaf", "setting": "[10]; [22]", "result": 100},
      {"measurement": "Velvetleaf plant response rating", "setting": "[10]; [23]", "result": 100},
      {"measurement": "Plant response rating, Bromegrass, Downy", "setting": "[11]; [16]", "result": 10},
      {"measurement": "Plant response rating, Bromegrass, Downy", "setting": "[11]; [17]", "result": 40},
      {"measurement": "Plant response rating, Bromegrass, Downy", "setting": "[11]; [18]", "result": 65},
      {"measurement": "Plant response rating, Bromegrass, Downy", "setting": "[11]; [19]", "result": 15},
      {"measurement": "Plant response rating, Bromegrass, Downy", "setting": "[11]; [20]", "result": 0},
      {"measurement": "Plant response rating, Bromegrass, Downy", "setting": "[11]; [21]", "result": 0},
      {"measurement": "Plant response rating, Bromegrass, Downy", "setting": "[11]; [22]", "result": 0},
      {"measurement": "Bromegrass, Downy plant response rating", "setting": "[11]; [23]", "result": 0},
      {"measurement": "Plant response rating, Blackgrass", "setting": "[12]; [16]", "result": 0},
      {"measurement": "Plant response rating, Blackgrass", "setting": "[12]; [17]", "result": 30},
      {"measurement": "Plant response rating, Blackgrass", "setting": "[12]; [18]", "result": 30},
      {"measurement": "Plant response rating, Blackgrass", "setting": "[12]; [19]", "result": 5},
      {"measurement": "Plant response rating, Blackgrass", "setting": "[12]; [20]", "result": 0},
      {"measurement": "Plant response rating, Blackgrass", "setting": "[12]; [21]", "result": 0},
      {"measurement": "Plant response rating, Blackgrass", "setting": "[12]; [22]", "result": 0},
      {"measurement": "Blackgrass plant response rating", "setting": "[12]; [23]", "result": 0},
      {"measurement": "Plant response rating, Surinam Grass", "setting": "[13]; [16]", "result": 70},
      {"measurement": "Plant response rating, Surinam Grass", "setting": "[13]; [18]", "result": 95},
      {"measurement": "Plant response rating, Surinam Grass", "setting": "[13]; [19]", "result": 80},
      {"measurement": "Plant response rating, Surinam Grass", "setting": "[13]; [20]", "result": 45},
      {"measurement": "Plant response rating, Surinam Grass", "setting": "[13]; [21]", "result": 75},
      {"measurement": "Plant response rating, Surinam Grass", "setting": "[13]; [22]", "result": 85},
      {"measurement": "Surinam Grass plant response rating", "setting": "[13]; [23]", "result": 90}
    ]}
  ]
}
